Like-named read-outs stand apart in the source and are kept apart here.
Tests used:
HBV = assay: HepAD38 antiviral assay: reduction of viral product accumulation (virion DNA by qPCR, HBsAg/HBeAg by ELISA); format: cell-based, hepatitis B virus
Method: Methods: HepAD38 cells are maintained as previously reported (Ladner et al, Antimicrob. Agents Chemother. 1997, […], 1715). Briefly, cells are passaged upon attaining confluency in DMEM/F12 media in the presence of 10% FBS, Penn/Strep, 250 μg/mL G418, and 1 μg/ml tetracycline. Novel compounds are screened by first washing cells three times with PBS to remove tetracycline, and plating in 96 well plates at 35,000 cells/well. Compounds dissolved in DMSO are then diluted 1:200 into wells containing cells. Five days after compound addition, material is harvested for analysis. For an extended 8 day analysis, cells are plated and treated as described above, but media and compound are refreshed on d2 and d5 post initial treatment.
On harvest day, virion DNA is obtained by lysing with Sidestep Lysis and Stabilization Buffer and then quantified via quantitative real time PCR. Commercially available ELISA kits are used to quantitate the viral proteins HBsAg (Alpco) or HbeAg (US Biological) by following the manufacturer's recommended protocol after diluting samples to match the linear range of their respective assays. Irrespective of readout, compound concentrations that reduce viral product accumulation in the cell lysates or supernatants by 50% relative to no drug controls (EC50) are reported; EC50 ranges are as follows: A<0.1 μM; B 0.1-1 μM; C>1 μM.

HepG2 = assay: Compound toxicity, ATPLite total ATP levels; format: cell-based; details: human, 3 days
Method: (§1) Compound toxicity is evaluated by seeding cells at 15,000 cells/well and treating with compound as described above.

[1] = Compound toxicity, ATPLite total ATP levels; format: cell-based; details: human
Method: as §1

[2] = Hepatitis B virus, HePAD38, read-out: HepAD38 EC50 (μM)
[3] = Hepatitis B virus, HepAD38 cells, 50% reduction of viral product accumulation relative to no drug controls, numeric bound, read-out: HepAD38 EC50
[4] = Hepatitis B virus, HepAD38 cells, 50% reduction of viral product accumulation relative to no drug controls, class symbols, read-out: HepAD38 EC50
[5] = HepG2 cells, HepG2, three days after compound addition, 50% reduction of total ATP levels (ATPLite), read-out: HepG2 CC50
[6] = read-out: HepAD38 EC50, HepAD38 cells, 50% reduction of viral product accumulation relative to no drug controls, class symbols

SMILES: O=S(=O)(N[C@H]1CC2=C(c3ccn(C(F)F)n3)[C@H](c3ccc(F)cc3Cl)N=C(c3nccs3)N2C1)N1C2CCC1CC(O)C2 (single isomer, unassigned) [Example 1]
- EC50 (HBV; [2]): < 0.1 µM
- CC50 (HepG2): 10000 to 25000 nM

SMILES: O=C(N[C@H]1CC2=C(c3ccn(C(F)F)n3)[C@H](c3ccc(F)cc3Cl)N=C(c3nccs3)N2C1)N1CC2CCC(C1)O2 [Example 4]
- EC50 (HBV; [3]): > 0.4 µM

SMILES: C#C[C@]1(O)C2CCC1C[C@@H](S(=O)(=O)N[C@H]1CC3=C(c4ccn(C(F)F)n4)[C@H](c4ccc(F)cc4Cl)N=C(c4nccs4)N3C1)C2 [Example 26]
- EC50 (HBV; [4]): < 0.1 µM

SMILES: O=S(=O)(N[C@H]1CC2=C(c3ccn(C(F)F)n3)[C@H](c3ccc(F)cc3Cl)N=C(c3nccs3)N2C1)[C@H]1CC2CCC(C1)[C@H]2O [Example 17]
- EC50 (HBV; [4]): < 0.1 µM
- CC50 at 3 days [1, 5]: 10 to 25 µM

SMILES: C#CC1(O)CC2CCC(C1)N2S(=O)(=O)N[C@H]1CC2=C(c3ccn(C(F)F)n3)[C@H](c3ccc(F)cc3Cl)N=C(c3nccs3)N2C1 (stereo partly shown) [Example 22]
- EC50 (HBV; [2]): < 0.1 µM

SMILES: C[C@]1(O)C2CCC1C[C@@H](S(=O)(=O)N[C@H]1CC3=C(c4ccn(C(F)F)n4)[C@H](c4ccc(F)cc4Cl)N=C(c4nccs4)N3C1)C2 [Example 25]
- EC50 (HBV; [4]): < 0.1 µM

SMILES: O=C(N[C@H]1CC2=C(c3ccn(C(F)F)n3)[C@H](c3ccc(F)cc3Cl)N=C(c3nccs3)N2C1)N1[C@@H]2CC[C@H]1C[C@H](O)C2 [Example 8]
- EC50 (HBV; [2]): 0.1 to 1 µM

SMILES: O=S(=O)(N[C@H]1CC2=C(c3ccn(C(F)F)n3)[C@H](c3ccc(F)cc3Cl)N=C(c3nccs3)N2C1)N1C2CCC1CC(O)C2 (single isomer, unassigned) [Example 3]
- EC50 (HBV; [6]): < 0.1 µM
- CC50 (HepG2): > 25000 nM

SMILES: O=S(=O)(N[C@H]1CC2=C(c3ccn(C(F)F)n3)[C@H](c3ccc(F)cc3Cl)N=C(c3nccs3)N2C1)[C@H]1CC2CCC(C1)[C@]2(O)CO [Example 27]
- EC50 (HBV; [4]): < 0.1 µM
- CC50 at 3 days [1, 5]: > 25 µM

SMILES: O=S(=O)(N[C@H]1CC2=C(c3ccn(C(F)F)n3)[C@H](c3ccc(F)cc3Cl)N=C(c3nccs3)N2C1)N1C2CC[C@H]1C=C(c1cn(-c3ccccn3)nn1)C2 [Example 32]
- EC50 (HBV; [2]): < 0.1 µM
- CC50 at 3 days ([1]; HepG2 CC50 (μM)): > 25 µM

SMILES: O=S(=O)(NC1CC2CCC(C1)C2O)N[C@H]1CC2=C(c3ccn(C(F)F)n3)[C@H](c3ccc(F)cc3Cl)N=C(c3nccs3)N2C1 (stereo partly shown) [Example 12]
- EC50 (HBV; [4]): 0.1 to 1 µM

SMILES: O=S(=O)(C[C@H]1CC2=C(c3ccn(C(F)F)n3)[C@H](c3ccc(F)cc3Cl)N=C(c3nccs3)N2C1)N1CC2CC[C@@H](C1)[C@]2(O)c1ccccn1 [Example 37]
- EC50 (HBV; [4]): < 0.1 µM

SMILES: O=S(=O)(N[C@H]1CC2=C(c3ccn(C(F)F)n3)[C@H](c3ccc(F)cc3Cl)N=C(c3nccs3)N2C1)N1C2CCC1CC(F)(F)C2 [Example 10]
- EC50 (HBV; [2]): < 0.1 µM

SMILES: O=S(=O)(N[C@H]1CC2=C(c3ccn(C(F)F)n3)[C@H](c3ccc(F)cc3Cl)N=C(c3nccs3)N2C1)N1C2CCC1CC(O)(c1cn(-c3ccccn3)nn1)C2 (stereo partly shown) [Example 24]
- EC50 (HBV; [2]): < 0.1 µM
- CC50 at 3 days ([1]; HepG2 CC50 (μM)): > 25 µM

SMILES: CC(C)(C)OC(=O)N1C2CCC1CC(NS(=O)(=O)N[C@H]1CC3=C(c4ccn(C(F)F)n4)[C@H](c4ccc(F)cc4Cl)N=C(c4nccs4)N3C1)C2 (stereo partly shown) [Example 11]
- EC50 (HBV; [2]): 0.1 to 1 µM

SMILES: O=C(N[C@H]1CC2=C(c3ccn(C(F)F)n3)[C@H](c3ccc(F)cc3Cl)N=C(c3nccs3)N2C1)N1C[C@H]2CC[C@@H](C1)[C@H]2O [Example 7]
- EC50 (HBV; [4]): 0.1 to 1 µM

SMILES: O=S(=O)(N[C@H]1CC2=C(c3ccn(C(F)F)n3)[C@H](c3ccc(F)cc3Cl)N=C(c3nccs3)N2C1)[C@@H]1CC2CC[C@@H](C1)[C@@]2(O)c1cn(-c2ccccn2)nn1 [Example 28]
- EC50 (HBV; [4]): < 0.1 µM

SMILES: O=S(=O)(N[C@H]1CC2=C(c3ccn(C(F)F)n3)[C@H](c3ccc(F)cc3Cl)N=C(c3nccs3)N2C1)N1C2CCC1CC(O)(c1nccs1)C2 (stereo partly shown) [Example 23]
- EC50 (HBV; [6]): < 0.1 µM
- CC50 at 3 days ([1]; HepG2 CC50 (μM)): > 25 µM

SMILES: O=S(=O)(N[C@H]1CC2=C(c3ccn(C(F)F)n3)[C@H](c3ccc(F)cc3Cl)N=C(c3nccs3)N2C1)N1C2CCC1CC(O)(c1ccccn1)C2 (stereo partly shown) [Example 19]
- EC50 (HBV; [2]): < 0.1 µM

SMILES: O=S(=O)(N[C@H]1CC2=C(c3ccn(C(F)F)n3)[C@H](c3ccc(F)cc3Cl)N=C(c3nccs3)N2C1)[C@H]1CC2CCC(C1)[C@]2(O)c1ccccn1 [Example 18]
- EC50 (HBV; [4]): < 0.1 µM
- CC50 at 3 days [1, 5]: 10 to 25 µM

SMILES: O=C1C2CCC1CC(S(=O)(=O)N[C@H]1CC3=C(c4ccn(C(F)F)n4)[C@H](c4ccc(F)cc4Cl)N=C(c4nccs4)N3C1)C2 (stereo partly shown) [Example 16]
- EC50 (HBV; [4]): 0.1 to 1 µM

SMILES: O=C(N[C@H]1CC2=C(c3ccn(C(F)F)n3)[C@H](c3ccc(F)cc3Cl)N=C(c3nccs3)N2C1)N1[C@@H]2CC[C@H]1C[C@@H](O)C2 [Example 5]
- EC50 (HBV; [3]): > 0.4 µM

SMILES: O=S(=O)(C[C@H]1CC2=C(c3ccn(C(F)F)n3)[C@H](c3ccc(F)cc3Cl)N=C(c3nccs3)N2C1)N1C2CC[C@H]1C[C@@](O)(c1ccccn1)C2 [Example 38]
- EC50 (HBV; [2]): 0.1 to 1 µM

SMILES: O=S(=O)(N[C@H]1CC2=C(c3ccn(C(F)F)n3)[C@H](c3ccc(F)cc3Cl)N=C(c3nccs3)N2C1)[C@H]1C2CC[C@H]1C[C@@](O)(c1ccccn1)C2 [Example 34]
- EC50 (HBV; [4]): < 0.1 µM

SMILES: O=S(=O)(N[C@H]1CC2=C(c3ccn(C(F)F)n3)[C@H](c3ccc(F)cc3Cl)N=C(c3nccs3)N2C1)N1C2CCC1CC(O)(c1nccs1)C2 (stereo partly shown) [Example 20]
- EC50 (HBV; [2]): < 0.1 µM

SMILES: O=S(=O)(N[C@H]1CC2=C(c3ccn(C(F)F)n3)[C@H](c3ccc(F)cc3Cl)N=C(c3nccs3)N2C1)N1CC2CCC(C1)C2O (stereo partly shown) [Example 15]
- EC50 (HBV; [4]): < 0.1 µM

SMILES: O=S(=O)(N[C@H]1CC2=C(c3ccn(C(F)F)n3)[C@H](c3ccc(F)cc3Cl)N=C(c3nccs3)N2C1)N1CC2CCC(C1)O2 [Example 2]
- EC50 (HBV; [4]): < 0.1 µM

SMILES: O=S(=O)(N[C@H]1CC2=C(c3ccn(C(F)F)n3)[C@H](c3ccc(F)cc3Cl)N=C(c3nccs3)N2C1)[C@H]1C2CC[C@H]1C[C@@](O)(CO)C2 [Example 35]
- EC50 (HBV; [4]): < 0.1 µM
- CC50 at 3 days [1, 5]: > 25 µM

SMILES: CN([C@H]1CC2=C(c3ccn(C(F)F)n3)[C@H](c3ccc(F)cc3Cl)N=C(c3nccs3)N2C1)S(=O)(=O)N1C2CC[C@H]1C[C@@](O)(c1nccs1)C2 [Example 36]
- EC50 (HBV; [2]): < 0.1 µM
- CC50 at 3 days ([1]; HepG2 CC50 (μM)): > 25 µM

SMILES: O=C1CC2CCC(C1)N2S(=O)(=O)N[C@H]1CC2=C(c3ccn(C(F)F)n3)[C@H](c3ccc(F)cc3Cl)N=C(c3nccs3)N2C1 [Example 9]
- EC50 (HBV; [2]): < 0.1 µM
- CC50 at 3 days ([1]; HepG2 CC50 (μM)): > 25 µM

SMILES: O=C(N[C@H]1CC2=C(c3ccn(C(F)F)n3)[C@H](c3ccc(F)cc3Cl)N=C(c3nccs3)N2C1)N1C[C@H]2CC[C@@H](C1)[C@@H]2O [Example 6]
- EC50 (HBV; [4]): 0.1 to 1 µM

SMILES: O=C1CC2CC[C@@H](C1)[C@H]2S(=O)(=O)N[C@H]1CC2=C(c3ccn(C(F)F)n3)[C@H](c3ccc(F)cc3Cl)N=C(c3nccs3)N2C1 [Example 33]
- EC50 (HBV; [4]): < 0.1 µM
- CC50 at 3 days [1, 5]: > 25 µM

SMILES: O=S(=O)(N[C@H]1CC2=C(c3ccn(C(F)F)n3)[C@H](c3ccc(F)cc3Cl)N=C(c3nccs3)N2C1)N1C2CC[C@H]1C[C@](O)(c1cn(-c3ccccn3)nn1)C2 [Example 31]
- EC50 (HBV; [2]): < 0.1 µM

SMILES: O=S(=O)(N[C@H]1CC2=C(c3ccn(C(F)F)n3)[C@H](c3ccc(F)cc3Cl)N=C(c3nccs3)N2C1)N1C2CCC1CC(O)(Cn1ccnc1)C2 (stereo partly shown) [Example 30]
- EC50 (HBV; [2]): < 0.1 µM

SMILES: O=C1NCC2(CC3CCC(C2)N3S(=O)(=O)N[C@H]2CC3=C(c4ccn(C(F)F)n4)[C@H](c4ccc(F)cc4Cl)N=C(c4nccs4)N3C2)O1 (stereo partly shown) [Example 21]
- EC50 (HBV; [2]): < 0.1 µM
- CC50 at 3 days ([1]; HepG2 CC50 (μM)): > 25 µM

SMILES: O=S(=O)(N[C@H]1CC2=C(c3ccn(C(F)F)n3)[C@H](c3ccc(F)cc3Cl)N=C(c3nccs3)N2C1)N1CC2CCC(C1)C2(O)c1ccccn1 (stereo partly shown) [Example 14]
- EC50 (HBV; [4]): < 0.1 µM
